Data set [1] deals with HBV. The experiment in a line: anti HBV activity in HepG2.117 cell line (Tet-off, inducibly HBV producing), intracellular HBV DNA by realtime PCR. The conditions noted are these: HepG2.117 cells, 3 days of treatment, intracellular HBV DNA; read-out: HepG2 117 EC50. Format: cell-based, Hepatitis B virus.
The subject of data set [2] is HBV. Nature of the data set: anti-HBV activity in stable transfected HepG2.2.15 cell line, HBV DNA from secreted virions by realtime PCR. The conditions noted are these: HepG2.2.15 cells, 6 days of treatment, secreted virion HBV DNA; read-out: HBV-HepG2 2.15 EC50. The data set is classed as cell-based, Hepatitis B virus.
Data set [3] relates to HepG2 cells. The conditions noted are these: human, 4 days.
Data set [4] concerns HepG2 cells. Nature of the data set: Cytotoxicity in HepG2 cells using CellTiter-Blue, same incubation period as HepG2.2.15 assay. Format: cell-based. The conditions noted are these: human, 6 days. The protocol:
Cytotoxicity of the compounds was tested in HepG2 cells using CellTiter-Blue, with the same incubation period and dose range as in the HepG2.2.15 assay.
For orientation: Resazurin is reduced to fluorescent resorufin, in cell work by metabolically active cells.

SMILES strings stand for the structures. Read-outs that look alike come from different tables or passages of the source.

Broadly, the EC50 is the concentration giving half of the maximal effect. As usually defined, the CC50 is the concentration giving 50% cytotoxicity. A higher CC50 goes with better tolerance by the cells. Turning to `COC(=O)C1=C(CN2CCOCC2)NC(c2ccccn2)=NC12CCc1c(F)cccc12` (single isomer, unassigned) [Compound 66b], the EC50 came to 48.9 µM in data set [1] and 35.1 µM in data set [2]. Moreover, the CC50 in data set [3] and in data set [4] was greater than 100 µM each time.
On to `COC(=O)C1=C(CN2CCOCC2)NC(c2ccccn2)=NC12CCc1ccc(F)cc12` (single isomer, unassigned) [Compound 96b], for which the EC50 in data set [1] was 18.7 µM; in data set [2], 30.3 µM. The CC50 in data set [3] and in data set [4] was greater than 100 µM throughout.
Regarding `COC(=O)C1=C(C)NC(c2ncc(F)cc2F)=NC12c1ccccc1OC2(F)F` (single isomer, unassigned) [Compound 106b], the concentration giving a half-maximal response (EC50) in data set [1] was greater than 25 µM; in data set [2], 29.4 µM. The CC50 in data set [3] was greater than 25 µM; in data set [4], greater than 100 µM.
With `COC(=O)C1=C(C)NC(c2ncc(F)cc2F)=NC12CC(C)(C)c1ccccc12` (single isomer, unassigned) [Compound 134b], the EC50 is greater than 50 µM in data set [1] and 41.9 µM in data set [2]. For the same molecule, the results for the cytotoxic concentration (CC50) in data set [3] and in data set [4] were greater than 50 µM and 35.8 µM, respectively.
For `COC(=O)C1=C(C)NC(c2nccs2)=NC12C(F)=C(F)c1cc(F)ccc12` (single isomer, unassigned) [Compound 166b], the EC50 came out at 15.5 µM in data set [1] and 0.197 µM in data set [2]. The CC50 in data set [3] is greater than 25 µM.
On the same counts, the results for `COC(=O)C1=C(CN2CCOCC2)NC(c2ccccn2)=NC12c1ccc(F)cc1C(F)C2(F)F` (single isomer, unassigned) [Compound 168B] are 1.49 µM, 5.73 µM and greater than 25 µM.

For the origin of these results see patent US9233933B2, “4,4-disubstituted-1,4-dihydropyrimidines and the use thereof as medicaments for the treatment of hepatitis B” (priority 2012, dated 2016).
